This is an account of results in PMC7192623, “Regulation of the RNA and DNA nuclease activities required for Pyrococcus furiosus Type III-B CRISPR–Cas immunity” (Nucleic Acids Research, 2020).

Experiment [1] has as its target T1, Pfu Csx1 (Pyrococcus furiosus, UniProt Q8U1S8).
T1 construct: gene PF1127; full-length, N-terminal 6x-His tag, modified pET24-D, expressed in E. coli BL21-RIPL (DE3)
T1 sequence (Q8U1S8 1-478): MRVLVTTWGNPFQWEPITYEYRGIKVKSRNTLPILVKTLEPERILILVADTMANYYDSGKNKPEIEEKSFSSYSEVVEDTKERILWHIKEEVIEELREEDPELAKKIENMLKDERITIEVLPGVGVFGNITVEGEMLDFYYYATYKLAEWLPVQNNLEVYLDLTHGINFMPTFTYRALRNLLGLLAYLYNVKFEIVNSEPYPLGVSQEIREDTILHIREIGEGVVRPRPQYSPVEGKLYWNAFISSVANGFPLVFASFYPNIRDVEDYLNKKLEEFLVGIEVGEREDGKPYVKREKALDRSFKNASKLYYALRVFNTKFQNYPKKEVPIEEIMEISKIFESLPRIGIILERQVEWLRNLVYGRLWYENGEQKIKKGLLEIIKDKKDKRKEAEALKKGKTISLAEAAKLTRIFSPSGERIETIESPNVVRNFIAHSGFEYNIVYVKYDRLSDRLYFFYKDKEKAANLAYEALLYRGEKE
In words: RNase activation assay, […]'-32P-labelled target RNA, urea-PAGE. As to conditions: allosteric activator via CARF domain; synthetic cA4 at 1.85, 18.5 and 185 pM; 20 nM Csx1; 20 mM Tris-HCl pH 7.5, 200 mM NaCl, 70 °C. It counts as biochemical.

The target in experiment [2] is T1, Pfu Csx1. Kind of experiment: cleavage of radiolabelled Cmr-produced native cOA, sequencing gel. It counts as biochemical. Particulars: HEPN active site; labelled compound; native cOA preparation (mainly cA4, also cA3), product presumed A2>p; 70 °C.

On to `Nc1ncnc2c1ncn2[C@@H]1O[C@@H]2COP(=O)(O)O[C@H]3[C@@H](O)[C@H](n4cnc5c(N)ncnc54)O[C@@H]3COP(=O)(O)O[C@H]3[C@@H](O)[C@H](n4cnc5c(N)ncnc54)O[C@@H]3COP(=O)(O)O[C@H]3[C@@H](O)[C@H](n4cnc5c(N)ncnc54)O[C@@H]3COP(=O)(O)O[C@H]2[C@H]1O` [cA4], for which the “RNase activation assay, 5'-32P-labelled target RNA, urea-PAGE” value at Pfu Csx1 [1] is listed as “cA4 but not cA6 stimulated the ribonuclease activity of Csx1”. Further, the “cleavage of radiolabelled Cmr-produced native cOA, sequencing gel” value at Pfu Csx1 [2] is “also degrades its cognate cyclic-tetra-AMP (cA4) activator to switch off the signaling pathway”.
